This note sets out measurements from patent publication US20080132562A1, “TETRONIC AND TETRAMIC ACIDS” (priority 2003, published 2008).

pIC50: −log10 of the molar value.

T1 sequence (P56817 46-501): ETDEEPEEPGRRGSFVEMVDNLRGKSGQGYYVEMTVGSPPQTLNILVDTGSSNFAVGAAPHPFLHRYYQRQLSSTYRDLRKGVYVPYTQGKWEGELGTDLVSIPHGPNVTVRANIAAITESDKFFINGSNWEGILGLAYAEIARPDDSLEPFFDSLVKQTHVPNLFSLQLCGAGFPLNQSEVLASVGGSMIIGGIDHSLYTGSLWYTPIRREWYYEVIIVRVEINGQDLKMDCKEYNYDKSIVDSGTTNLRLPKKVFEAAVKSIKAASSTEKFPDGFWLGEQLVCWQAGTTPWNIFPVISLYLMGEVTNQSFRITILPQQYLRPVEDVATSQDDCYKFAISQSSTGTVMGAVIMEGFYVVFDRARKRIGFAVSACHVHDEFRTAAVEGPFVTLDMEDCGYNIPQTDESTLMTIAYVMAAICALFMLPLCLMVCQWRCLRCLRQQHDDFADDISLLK

The assay addresses T1, purified BACE protein (β-secretase) (Homo sapiens, UniProt P56817).
T1 construct: made in house
The assay can be described thus: Competitive Radioligand Binding Assay (RLBA). As to conditions: β-secretase inhibition; displacement of tritiated Compound A tracer from plate-coated BACE, binding buffer pH 4.1; read-out: IC50 in vitro. On the procedure: Competitive Radioligand Binding Assay (RLBA)
96 well microplates (Optiplate Packard) are coated with purified BACE protein (see e.g. GB 2,385,124: Examples 1 and 2) using a concentration of 1 μg/ml in 30 mM sodium citrate buffer adjusted to pH 5.5. The coating is achieved by incubation of 100 μl/well for 1-3 days at 4° C. The plate is then washed with 2×300 μl/well of 10 mM citrate pH 4.1. To each well 100 μl binding buffer (30 mM citrate, 100 mM NaCl, 0.1% BSA, pH 4.1) is dispensed. The test compound is added in 5 μl from a DMSO stock solution or appropriate dilutions. To this the tracer (tritiated Compound A, see e.g. GB 2,385,124: Example 4) is added in 10 μl/well from a 10 μCi/ml stock solution in binding buffer. After incubation for 1.5-2 hours in a humid chamber at ambient temperature the plate is washed with 2×300 μl/well water and flipped on a dry towel. Following the addition of 50 μl/well MicroScint20 (Packard) the plate is sealed and vibrated for 5 seconds. The bound radioactivity is counted on a Topcount (Packard). Total binding is typically between 2000 and 10000 cpm/well depending mainly on the purity and concentration of the BACE protein. Non-specific binding as assessed by competition with >1 μM peptidic inhibitor (Bachem #H-4848) is typically between 30 and 300 cpm/well. The IC-50 values are calculated by Microsoft Excel FIT.
As a reminder, the pIC50 is the IC50 on a negative log10 scale, so that one unit is a factor of ten. For the compound `CC(Cc1ccc(C(C)(C)C)cc1)C(=O)C1=C(O)C(Cc2ccccc2)OC1=O` (stereo not drawn) [Example D2, 5-Benzyl-3-[3-(4-tert-butyl-phenyl)-2-methyl-propionyl]-4-hydroxy-5H-furan-2-one], the pIC50 is 4.48.

On to `O=C(Cc1c[nH]c2ccccc12)C1=C(O)C(CCCc2ccccc2)OC1=O` (stereo not drawn) [Example F5, 4-Hydroxy-3-[(H-indol-3-yl)-acetyl]-5-(3-phenyl-propyl)-5H-furan-2-one], for which the pIC50 is 4.85. With `NC(Cc1ccc(OCc2ccccc2)cc1)C(=O)C1=C(O)C(CCc2ccccc2)NC1=O` (stereo not drawn) [Example K38, 3-[2-Amino-3-(4-benzyloxy-phenyl)-propionyl]-4-hydroxy-5-phenethyl-1,5-dihydro-pyrrol-2-one; compound with trifluoro-acetic acid] the figure was 4.80; with `O=C(CC(c1ccccc1)c1ccccc1)C1=C(O)C(CCc2ccccc2)(c2ccccc2)OC1=O` (stereo not drawn) [Example J4, 3-(3,3-Diphenyl-propionyl)-4-hydroxy-5-phenethyl-5-phenyl-5H-furan-2-one], 4.39. As to `O=C(Cn1c2ccccc2c2ccccc21)C1=C(O)C(CCc2ccccc2)NC1=O` (stereo not drawn) [Example K46, 3-(Carbazol-9-yl-acetyl)-4-hydroxy-5-phenethyl-1,5-dihydro-pyrrol-2-one], the negative logarithm of the IC50 (pIC50) is 4.44. With `O=C(Cc1cn(Cc2ccc(F)cc2)c2ccccc12)C1=C(O)C(CC2CCCCC2)OC1=O` (stereo not drawn) [Example C19, 5-Cyclohexylmethyl-3-{[1-(4-fluoro-benzyl)-1H-indol-3-yl]-acetyl}-4-hydroxy-5H-furan-2-one] the figure was 4.82; with `O=C(Cn1c2ccccc2c2ccccc21)C1=C(O)C(CC2CCCCC2)OC1=O` (stereo not drawn) [Example C33, 3-(Carbazol-9-yl-acetyl)-5-cyclohexylmethyl-4-hydroxy-5H-furan-2-one], 4.96.

For the compound `CC1(CCc2ccccc2)OC(=O)C(C(=O)CC2c3ccccc3-c3ccccc32)=C1O` (stereo not drawn) [Example I7, 3-[(9H-Fluoren-9-yl)-acetyl]-4-hydroxy-5-methyl-5-phenethyl-5H-furan-2-one], the pIC50 is 4.51. With `O=C(CC(c1ccccc1)c1ccccc1)C1=C(O)C(CCCN2CCOCC2)OC1=O` (stereo not drawn) [Example G29, 3-(3,3-Diphenyl-propionyl)-4-hydroxy-5-(3-morpholin-4-yl-propyl)-5H-furan-2-one] the figure was 4.07; with `COc1ccc(Cl)cc1C(=O)NCCc1ccc(CC(C)C(=O)C2=C(O)C(CC3CCCCC3)OC2=O)cc1` (stereo not drawn) [Example C12, 5-Chloro-N-(2-{4-[3-(5-cyclohexylmethyl-4-hydroxy-2-oxo-2,5-dihydro-furan-3-yl)-2-methyl-3-oxo-propyl]-phenyl}-ethyl)-2-methoxy-benzamide], 4.92; with `CC(Cc1ccc(OCc2ccccc2)cc1)C(=O)C1=C(O)C(CC2CCCCC2)OC1=O` (stereo not drawn) [Example C9, 3-[3-(4-Benzyloxy-phenyl)-2-methyl-propionyl]-5-cyclohexylmethyl-4-hydroxy-5H-furan-2-one], 4.89. For the compound `O=C(CCCC1CCCCC1)C1=C(O)C(CCc2ccccc2)OC1=O` (racemic) [Example E7, Rac-3-(4-cyclohexyl-butyryl)-4-hydroxy-5-phenethyl-5H-furan-2-one], the pIC50 is 4.24.
